Results from patent publication US8431577B2, “Crystalline form of eszopiclone, composition, preparation and uses thereof” (Tianjin Tasly Group Co., Ltd., priority 2008, dated 2013).

Assays:
[1] = Pharmacokinetic study pre and post eating in healthy volunteers; assay type: in vivo, human; details: single oral
Procedure: In addition, the effect of eating food on in vivo metabolism of the drug had been evaluated. 8 subjects were randomly divided into 2 groups. In 2 tests, the subjects of each group received the drug at the same dose (6 mg) in the cases of fasting and 5 minutes after taking standard diet. The interval between two tests was 2 weeks.
(§1) After a single oral administration of the tested drug, 6 ml anticoagulant heparin venous blood samples were collected at 0th (immediately before administration), 15th minute, 30th minute, 45th minute, 60th minute, 1.5th hour, 2nd hour, 3rd hour, 4th hour, 6th hour, 8th hour, 12th hour, 16th hour and 24th hour respectively to determine the concentration of S-zopiclone. By HPLC, the plasma drug concentration of each subject had been determined at different time-points to give a concentration-time curve. The main pharmacokinetic parameters of the subjects had been calculated, including AUC, Cmax, Tmax, AUC0˜α, AUC0-t and t1/2, etc.
(§2) The crystalline form of S-zopiclone was prepared into coated tablets (3 mg S-zopiclone/tablet) in accordance with Example 1 and Example 9, single orally administrated.
(§3) Pharmacokinetic indices: the plasma drug concentration had been determined immediately before administration and at different time-points after administration of the drug to give a concentration-time curve. The main pharmacokinetic parameters had been calculated, including Cmax, Tmax, AUC0˜α, AUC0-t and t1/2, etc.
(§4) Pharmacokinetic: 3P97 statistical analysis software had been applied to calculate the main pharmacokinetic parameters.

Male Long-Evans rats = assay: Maze test; assay type: in vivo, rat
Procedure: Male Long-Evans rats (weighing 250˜275 g) were adopted, divided into 3 groups, and fed in a 12-hour light-dark cycle. After one week of feeding, the experiment was carried out.

[2] = Solubility test (Chinese Pharmacopoeia 2000 general notice); assay type: physicochemical; details: 25±2° C.
Procedure: Solubility test had been carried out by common solvents in accordance with the method of the GENERAL NOTICE in Chinese Pharmacopoeia (2000 Edition).
Test method: an appropriate amount of fine powder of the crystalline form of S-zopiclone was weighed accurately, into which a certain amount of solvent was added with an accuracy of ±2%. At a temperature of 25±2° C., the solution was shaken violently for 30 seconds, which is repeated at 5-minute intervals. The solubility behavior within 30 minutes had been observed.

[3] = High temperature (60° C.) stability test; details: for Content (%) / Related substances (%) Levozopiclone / Related substances (%) Other impurities: High temperature (60° C.)
Procedure: The crystalline form of S-zopiclone of the present invention was introduced into an open and colorless transparent weighing-bottle batch by batch, and placed in a thermostat container (60° C.) for 10 days. The specimens were sampled on the 5th and 10th day respectively to measure their stability in accordance with the key stability-relevant items.

[4] = Pharmacokinetic study of single oral administration in healthy volunteers; assay type: in vivo, human
Procedure: Evaluation of pharmacokinetics: according to the results of phase I clinical tolerance trial and the pre-designed therapeutic dose of phase II clinical trial, a high dose of 11. 25 mg/kg BW (body weight) can be tolerated by all volunteers in tolerance test, three different dose groups had been set as follows: low dose group, moderate dose group and high dose group were 3, 6 and 12 mg/kg BW, respectively. Three-way crossover Latin square design was used. All subjects were randomly divided into 3 test groups, and the tested drug at different doses was administrated to the subjects when performing each test. Thus, after 3 tests, each subject had been administrated with the testing drug at high, moderate and low dose by following the Latin square design procedure. The interval between two tests was 2 weeks.
as §1, §2, §3, §4

[5] = 6 mg (eating), 5 minutes after standard diet
[6] = 3 mg single oral administration
[7] = 6 mg single oral administration
[8] = 12 mg single oral administration

**Q.** With `CN1CCN(C(=O)O[C@H]2c3nccnc3C(=O)N2c2ccc(Cl)cn2)CC1` [crystalline form of S-zopiclone, (+)-(S)-(4-methylpiperazine-1-carboxylate)(6-(5-chloropyridinyl-2-yl)-7-carbonyl-6,7-dihydro-5-H-pyrrolo[3,4-b]pyrazin-5-yl ester)] as the compound, how does the “AUC0-∞” value [1, 5] read?
**A.** The value was 284.00 ± 88.36 µg/h/L.

**Q.** And the Cmax [1, 5]?
**A.** Its Cmax is 62.60 ± 18.95 ng/mL.

**Q.** And the Tmax [1, 5]?
**A.** The Tmax was 1.75 ± 0.89 h.

**Q.** And the plasma clearance [1, 5]?
**A.** Its plasma clearance is 21.4 ± 7.4 L/h.

**Q.** And the t1/2 [1, 5]?
**A.** Its t1/2 is 6.75 ± 1.49 h.

**Q.** And the “AUC0-∞” value ([1]; 6 mg (fasting))?
**A.** Its value is 335.73 ± 145.57 µg/h/L.

**Q.** And the Cmax ([1]; 6 mg (fasting))?
**A.** The Cmax was 60.69 ± 11.43 ng/mL.

**Q.** And the Tmax ([1]; 6 mg (fasting))?
**A.** Its Tmax is 1.31 ± 0.44 h.

**Q.** And the plasma clearance ([1]; 6 mg (fasting))?
**A.** Its plasma clearance is 16.00 ± 3.3 L/h.

**Q.** And the t1/2 ([1]; 6 mg (fasting))?
**A.** Its t1/2 is 7.17 ± 2.69 h.

**Q.** What about the “residence time in the open arm” value (Male Long-Evans rats; 5 mg/Kg body weight) of the same compound?
**A.** The value was “significantly increase”.

**Q.** And the “effect on total entries, open arm entries and close arm entries” value (Male Long-Evans rats; 10 mg/Kg body weight)?
**A.** The value was “significant effect”.

**Q.** And the “residence time in the open arm” value (Male Long-Evans rats; 10 mg/Kg body weight)?
**A.** Its value is “significantly increase”.

**Q.** And the “Required amount of the solvent” value ([2]; acetone, 10 mg sample)?
**A.** Its value is 2.0 mL.

**Q.** What about the “Required amount of the solvent for dissolving 1 g of the sample” value (“Required amount … of the sample” for short) ([2]; acetone) of the same compound?
**A.** The value was 200 mL.

**Q.** What about the Solubility ([2]; acetone) of the same compound?
**A.** Its Solubility is “slightly soluble”.

**Q.** And the “Required amount of the solvent” value ([2]; anhydrous ether, 10 mg sample)?
**A.** Its value is 90.0 mL.

**Q.** And the “Required amount … of the sample” value ([2]; anhydrous ether)?
**A.** The value was 9000 mL.

**Q.** And the Solubility ([2]; anhydrous ether)?
**A.** The Solubility was “very slightly soluble”.

**Q.** What about the “Required amount of the solvent” value ([2]; chloroform, 100 mg sample) of the same compound?
**A.** The value was 0.6 mL.

**Q.** What about the “Required amount … of the sample” value ([2]; chloroform) of the same compound?
**A.** The value was 6 mL.

**Q.** What about the Solubility ([2]; chloroform) of the same compound?
**A.** Its Solubility is “freely soluble”.

**Q.** And the “Required amount of the solvent” value ([2]; ethanol, 10 mg sample)?
**A.** Its value is 15.0 mL.

**Q.** What about the “Required amount … of the sample” value ([2]; ethanol) of the same compound?
**A.** Its value is 1500 mL.

**Q.** What about the Solubility ([2]; ethanol) of the same compound?
**A.** The Solubility was “very slightly soluble”.

**Q.** And the “Required amount of the solvent” value ([2]; ethyl acetate, 10 mg sample)?
**A.** The value was 6.0 mL.

**Q.** What about the “Required amount … of the sample” value ([2]; ethyl acetate) of the same compound?
**A.** Its value is 600 mL.

**Q.** And the Solubility ([2]; ethyl acetate)?
**A.** The Solubility was “slightly soluble”.

**Q.** And the “Required amount of the solvent” value ([2]; hydrochloric acid (0.1 mol/L), 10 mg sample)?
**A.** Its value is 0.7 mL.

**Q.** What about the “Required amount … of the sample” value ([2]; hydrochloric acid (0.1 mol/L)) of the same compound?
**A.** The value was 70 mL.

**Q.** What about the Solubility ([2]; hydrochloric acid (0.1 mol/L)) of the same compound?
**A.** The Solubility was “Soluble”.

**Q.** And the “Required amount of the solvent” value ([2]; methanol, 10 mg sample)?
**A.** Its value is 5.0 mL.

**Q.** What about the “Required amount … of the sample” value ([2]; methanol) of the same compound?
**A.** The value was 500 mL.

**Q.** What about the Solubility ([2]; methanol) of the same compound?
**A.** Its Solubility is “slightly soluble”.

**Q.** What about the “Required amount of the solvent” value ([2]; water, 10 mg sample) of the same compound?
**A.** The value was 200 mL.

**Q.** And the “Required amount … of the sample” value ([2]; water)?
**A.** The value was 20000 mL.

**Q.** And the Solubility ([2]; water)?
**A.** The Solubility was “practically insoluble”.

**Q.** And the “stability (character, melting point, related substances versus 0th day)” value ([3]; 10 days of high-temperature (60° C.))?
**A.** The value was “stable”.

**Q.** And the “Content (%)” value ([3]; day 0)?
**A.** Its value is 100.06%.

**Q.** And the “Related substances (%) Levozopiclone” value ([3]; day 0)?
**A.** Its value is 0.06%.

**Q.** And the “Related substances (%) Other impurities” value ([3]; day 0)?
**A.** Its value is 0.09%.

**Q.** What about the “Content (%)” value ([3]; day 5) of the same compound?
**A.** The value was 100.01%.

**Q.** And the “Related substances (%) Levozopiclone” value ([3]; day 5)?
**A.** Its value is 0.08%.

**Q.** What about the “Related substances (%) Other impurities” value ([3]; day 5) of the same compound?
**A.** Its value is 0.11%.

**Q.** And the “Content (%)” value ([3]; day 10)?
**A.** The value was 100.12%.

**Q.** And the “Related substances (%) Levozopiclone” value ([3]; day 10)?
**A.** Its value is 0.07%.

**Q.** And the “Related substances (%) Other impurities” value ([3]; day 10)?
**A.** The value was 0.12%.

**Q.** What about the “AUC0-∞” value [4, 6] of the same compound?
**A.** The value was 259.66 ± 92.58 µg/h/L.

**Q.** What about the Cmax [4, 6] of the same compound?
**A.** The Cmax was 33.96 ± 8.63 ng/mL.

**Q.** And the Tmax [4, 6]?
**A.** Its Tmax is 1.50 ± 0.66 h.

**Q.** And the plasma clearance [4, 6]?
**A.** Its plasma clearance is 14.10 ± 4.5 L/h.

**Q.** And the t1/2 [4, 6]?
**A.** The t1/2 was 6.98 ± 0.99 h.

**Q.** What about the “AUC0-∞” value [4, 7] of the same compound?
**A.** The value was 404.21 ± 73.32 µg/h/L.

**Q.** What about the Cmax [4, 7] of the same compound?
**A.** The Cmax was 60.94 ± 11.44 ng/mL.

**Q.** What about the Tmax [4, 7] of the same compound?
**A.** Its Tmax is 1.28 ± 0.43 h.

**Q.** What about the plasma clearance [4, 7] of the same compound?
**A.** Its plasma clearance is 15.80 ± 3.0 L/h.

**Q.** And the t1/2 [4, 7]?
**A.** Its t1/2 is 8.20 ± 6.14 h.

**Q.** And the “AUC0-∞” value [4, 8]?
**A.** The value was 1291.26 ± 426.68 µg/h/L.

**Q.** What about the Cmax [4, 8] of the same compound?
**A.** Its Cmax is 182.72 ± 67.44 ng/mL.

**Q.** And the Tmax [4, 8]?
**A.** The Tmax was 1.58 ± 0.40 h.

**Q.** And the plasma clearance [4, 8]?
**A.** Its plasma clearance is 10.90 ± 5.00 L/h.

**Q.** And the t1/2 [4, 8]?
**A.** The t1/2 was 8.06 ± 2.82 h.
